Patent US9492543B2, “Compositions for treating cognitive disorders” (priority 2009, dated 2016)

Assays:
[1] = tested on: hippocampal excitatory synaptic transmission (fEPSP, perforant path - dentate gyrus); assay: Basal excitatory synaptic transmission (fEPSP amplitude) in the hippocampus of the freely moving rat; type: in vivo, Sprague-Dawley rat; settings: for activity on basal excitatory synaptic transmission (in words): Compound X 6 mg/kg ip, physostigmine 0.1 mg/kg ip, drug vs. vehicle, paired t-test; for DRUG FEPSP AMPLITUDE [% OF PRE-VEHICLE BASELINE ± S.E.M.]: ip, Compound X 6.0 mg/kg, physostigmine 0.1 mg/kg, 15 min post-drug period with largest increase
Description: (§1) Experiments were carried out in freely moving male Sprague-Dawley rats implanted with depth stimulating and recording electrodes in the hippocampus and olfactory cortex to (1) characterize the effect of a compound of Formula 1 ((2R,3S)-2-amino-3-hydroxy-3-(pyridin-4-yl)-1-(pyrrolidin-1-yl)propan-1-one) (“Compound X”) on basal excitatory synaptic transmission, a measure positively associated with behavioral performance and encoding of information; and (2) determine a possible interaction on synaptic transmission when Compound X is coapplied with physostigmine and galantamine—both members of the cholinesterase inhibitor family which has pro-cognitive efficacy in Alzheimer's Disease patients.
(§2) Field excitatory post-synaptic responses (fEPSPs) evoked by electrical stimulation were recorded in freely moving animals with depth electrodes permanently implanted in the hippocampus and olfactory cortex. Experiment 1 compared the effect of one dose level (6 mg/kg ip) of Compound X on hippocampal and cortical fEPSPs with vehicle control data. Experiment 2 compared the effect of Compound X (6 mg/kg ip) combined with either physostigmine (0.1 mg/kg ip) or galantamine (1 mg/kg ip) on hippocampal and cortical fEPSPs with vehicle control data.
(§3) Male Sprague Dawley rats, 3 months of age at the time of surgery, were used. The animals were housed individually and kept in a 12:12 light/dark cycle with food and water available ad libitum.
(§4) Preparation of animals with chronically implanted electrodes followed procedures essentially as described in earlier published work (U. Staubli and J. Scafidi, J. J. Neurosci. 17: 4820-4828 (1997)). For recordings from the hippocampus, the stimulating electrode was placed in the perforant path within the entorhinal cortex, and the recording electrode in the hilus of the hippocampal dentate gyrus. For recording from the olfactory cortex, the stimulating electrode was placed in the olfactory tract and the recording electrode in the layer I of the piriform cortex.
Ten days following recovery from surgery, the animals were acclimated to the recording cage as well as to the attachment of a recording lead to the head stage. Recording sessions began by adjusting current intensities (25-100 μA) and pulse width of the monophasic stimulation pulse (100-250 μsec) to produce a field excitatory postsynaptic potential (fEPSP) that was 50-60% of the maximum amplitude of the population-spike free response which typically ranged between 4 and 8 mV. Recording signals were amplified and filtered with a band pass of 1 Hz to 5 kHz and fed into a PC running specialized software (NacGather) that digitizes measures and stores the evoked responses. […]

[2] = tested on: excitatory synaptic transmission in the olfactory cortex (fEPSP, olfactory tract - piriform cortex layer I); assay: Basal excitatory synaptic transmission (fEPSP amplitude) in the olfactory cortex of the freely moving rat; type: in vivo, Sprague-Dawley rat; settings: for activity on basal excitatory synaptic transmission (in words): Compound X 6 mg/kg ip, drug vs. vehicle, paired t-test; for DRUG FEPSP AMPLITUDE [% OF PRE-VEHICLE BASELINE ± S.E.M.]: ip, Compound X 6.0 mg/kg, 15 min post-drug period with largest increase
Description: as §1, §2, §3, §4
Ten days following recovery from surgery, the animals were acclimated to the recording cage as well as to the attachment of a recording lead to the head stage. Recording sessions began by adjusting current intensities (25-100 μA) and pulse width of the monophasic stimulation pulse (100-250 μsec) to produce a field excitatory postsynaptic potential (fEPSP) that was 50-60% of the maximum amplitude of the population-spike free response which typically ranged between 4 and 8 mV. Recording signals were amplified and filtered with a band pass of 1 Hz to 5 kHz and fed into a PC running specialized software (NacGather) that digitizes measures and stores the evoked responses.
Hippocampal animals (subjects with electrodes implanted into hippocampus) were randomly assigned to one of 3 groups, i.e., Compound X alone, Compound X plus physostigmine, physostigmine alone. Cortical animals (subjects with electrodes implanted into olfactory cortex) were randomly assigned to 5 groups, i.e., Compound X alone, Compound X plus physostigmine, physostigmine alone, Compound X plus galantamine, galantamine alone. […] If changes in baseline greater than +5% were observed, the experiment was terminated for that day. All other animals were injected with test compound 20 min after vehicle, and fEPSP recording was continued for at least 2 hours, but 4 hrs if the drug effect was still present at 2 hrs. In cases where animals were used repeatedly, a minimum of three washout days followed each test session. Responses were sampled once every 20 sec throughout the experiment.
Compound X was kept frozen at approximately −20° C. in a freezer as a powder. Immediately prior the powder was dissolved in double distilled water (ddw) to make a 12 mg/ml stock and then diluted by 50% for injection at 6 mg/kg at a final volume of 1 ml/kg.
Physostigmine (eserine hemisulfate) was purchased from Sigma Aldrich and dissolved in ddw to make a 1 mg/ml stock solution. […]

Row | Structure (SMILES) | activity on basal excitatory synaptic transmission (in words) [1] | DRUG FEPSP AMPLITUDE [% OF PRE-VEHICLE BASELINE ± S.E.M.] [1] | activity on basal excitatory synaptic transmission (in words) ([2]; galantamine 1 mg/kg ip) | activity on basal excitatory synaptic transmission (in words) ([2]; physostigmine 0.1 mg/kg ip) | DRUG FEPSP AMPLITUDE [% OF PRE-VEHICLE BASELINE ± S.E.M.] ([2]; galantamine 1.0 mg/kg) | DRUG FEPSP AMPLITUDE [% OF PRE-VEHICLE BASELINE ± S.E.M.] ([2]; physostigmine 0.1 mg/kg)
1 | N[C@@H](C(=O)N1CCCC1)[C@@H](O)c1ccncc1 [Compound X, (2R,3S)-2-amino-3-hydroxy-3-(pyridin-4-yl)-1-(pyrrolidin-1-yl)propan-1-one] | significant facilitatory activity | 7.86 ± 2.98 % OF PRE-VEHICLE BASELINE | significant facilitatory activity | significant facilitatory activity | 10.67 + 1.67 % OF PRE-VEHICLE BASELINE | 10.67 + 1.67 % OF PRE-VEHICLE BASELINE
2 | COc1ccc2c3c1O[C@H]1C[C@@H](O)C=C[C@@]31CCN(C)C2 [Galantamine, reference compound] | – | – | inactive | – | 3.13 + 1.73 % OF PRE-VEHICLE BASELINE | –
3 | CNC(=O)Oc1ccc2c(c1)[C@]1(C)CCN(C)[C@@H]1N2C [Physostigmine, reference compound] | inactive | 2.33 + 2.91 % OF PRE-VEHICLE BASELINE | – | – | – | 5.30 + 0.69 % OF PRE-VEHICLE BASELINE
